Experiments:
[1] = test system: human potassium hERG channel; details: ref unpublished results; cited from earlier work
male and female rats [2] = experiment: Acute toxicity study; type: in vivo, rat
male and female rats [3] = experiment: Subchronic toxicity study
[4] = ref unpublished results; cited from earlier work
[5] = Pharmacokinetic study of URB937 in rats; type: in vivo, rat
[6] = test system: OEA levels (biomarker of FAAH activity); experiment: OEA levels in liver and plasma after oral URB937; type: in vivo; details: rat, oral 0.3, 1, 3, 10 mg/kg, one hour
[7] = male and female rats, single oral 100, 300, 1000 mg/kg
[8] = male rats, single oral 300 mg/kg, 7 days
[9] = male and female rats, 100, 300, 1000 mg/kg oral for 14 days
[10] = male Sprague Dawley rats, 3 mg/kg oral

## NC(=O)c1cccc(-c2cc(OC(=O)NC3CCCCC3)ccc2O)c1 [URB937]
[1]
  inhibition of the human potassium hERG channel: does not inhibit
Male and female rats [2]; female rats, single oral 100 mg/kg, 7 days
  food intake: small, but significant increase
Male and female rats [2]; female rats, single oral 1000 mg/kg, 7 days
  water consumption: larger increment
Male and female rats [2]; male and female rats, acute oral administration of supramaximal doses
  tolerability: well tolerated
Male and female rats [2]; [7]
  hematology and blood chemistry screens: no significant alterations
  macroscopic examination at necropsy and microscopic histopathology: did not reveal any abnormality
  mortality: None of the animals died
Male and female rats [2]; [8]
  cumulative food intake: reduced
  cumulative water intake: reduced
Male and female rats [3]; female rats, 300 mg/kg oral once daily for 14 days
  food intake: small increase
Male and female rats [3]; [9]
  macroscopic examination at necropsy and microscopic histopathology: did not reveal any abnormality
  mortality: None of the animals died
Male and female rats [3]; male and female rats, subchronic (2 weeks) oral administration of supramaximal doses
  tolerability: well tolerated
Male and female rats [3]; male rats only, 14-day oral administration
  plasma glucose levels: increase
[4]
  genotoxic effects in the Ames' test: does not exert genotoxic effects
[5]; [10]
  AUCplasma, area under the curve: 0.6562 µg·h/mL
  Tmax, time at which Cmax is reached: 1 h
  Vd, distribution volume: 17.9 L
[5]; male Sprague Dawley rats, 3 mg/kg oral vs intravenous
  F, oral bioavailability: 36%
[5]; male Sprague Dawley rats, 3 mg/kg oral, noncompartmental model
  Cl, clearance: 76.64 mL/min
[5]; male Sprague Dawley rats, 3 mg/kg oral, plasma
  Cmax, maximal plasma concentration: 159.47 ng/mL
[5]; male Sprague Dawley rats, 3 mg/kg oral, 3 mg/kg
  t1/2, terminal half-life: 2.702 h
[5]; male rats, 3 mg/kg oral
  t1/2 (cleared from circulation): approximately 3 h
[5]; male rats, 3 mg/kg oral, below limit of detection (LOD 50 pg/ml, LOQ 300 pg/ml)
  brain levels of URB937: < 0.05 ng/mL
[5]; rats, oral 0.3 to 100 mg/kg, 1 h after treatment
  plasma levels of URB937 in dose-escalation study: increased linearly in the dose range of 0.3 to 10 mg/kg and reached saturation between 30 mg/kg and 100 mg/kg
[6]
  OEA levels in liver: dose-dependent elevation
  OEA levels in plasma: dose-dependent elevation
